Laboratory results: patent EP1058679B1

Settings: from CC[Si](CC)(CC)O[C@@H](CC(=O)O)C(C)(C)C(=O)[C@H](C)[C@@H](OC(=O)OCC(Cl)(Cl)Cl)[C@@H](C)CCC/C(C)=C\C[C@H](O)/C(C)=C/c1csc(C)n1; ester bond; 2,4,6-trichlorobenzoyl chloride, Et3N, DMAP; toluene; 0.79 mM; 25.0 °C; 3.5 h

Compound: CC[Si](CC)(CC)O[C@H]1CC(=O)O[C@H](/C(C)=C/c2csc(C)n2)C/C=C(/C)CCC[C@H](C)[C@H](OC(=O)OCC(Cl)(Cl)Cl)[C@@H](C)C(=O)C1(C)C
- ring closure, yield of all isomers: 78%
